Test [1] concerns the target alpha-L-fucosidase (Bos taurus). Briefly: Compound was tested for inhibitory activity against alpha-L-fucosidase from bovine epididymis.
For test [2] the target is unchanged. Briefly: Compound was tested for inhibitory activity (competitive) against alpha-L-fucosidase from bovine kidney.
Test [3] has the same target. Briefly: Compound was tested for inhibitory activity (mixed) against alpha-L-fucosidase from bovine kidney.

The Ki is a dissociation constant, usually derived from enzyme kinetics or from competition with a known ligand. `NCC(O)C(=O)C(=O)C(N)CO` (stereo unspecified) [2,6-Diimino-hexane-1,3,4,5-tetraol]: the figures for the inhibition constant Ki in test [1] and in test [2] were 11 µM and 7 µM, respectively.
With `CC1OC(SC2CC(O)C(O)OC2CO)C(O)C(O)C1O` [(2S,4S,5S)-2-((3S,5S)-5,6-Dihydroxy-2-hydroxymethyl-tetrahydro-pyran-3-ylsulfanyl)-6-methyl-tetrahydro-pyran-3,4,5-triol], the Ki in test [3] came out at 4000 µM.
Same read-out and setting: as for `CC(=O)NC1CC(SC2OC(C)C(O)C(O)C2O)C(CO)OC1O` [N-[(3S,5S)-2-Hydroxy-6-hydroxymethyl-5-((2S,4S,5S)-3,4,5-trihydroxy-6-methyl-tetrahydro-pyran-2-ylsulfanyl)-tetrahydro-pyran-3-yl]-acetamide], the figure is 2400 µM.
With `C[C@@H]1O[C@@H](O)[C@@H](O)[C@H](O)[C@@H]1S` [(2R,3S,4S,5S,6S)-5-Mercapto-6-methyl-tetrahydro-pyran-2,3,4-triol], the values for the Ki in test [1] and in test [2] were 84 µM and 42 µM, respectively.

The values are drawn from BindingDB's records for doi:10.1016/0960-894X(95)00377-6 (1995).
